# Assay results reported in patent US20250368649A1, “TETRAHYDROPYRIDOPYRIMIDINE PAN-KRAS INHIBITORS” (Mirati Therapeutics, Inc., priority 2022, published 2025).
# Key:
# KRas G12R = KRas G12R (Homo sapiens, UniProt P01116, G12R); experiment: biochemical; settings: Binding to KRas (IC50 nM) G12R, TR-FRET displacement, KRas G12R
# H460 cells = experiment: Inhibition of KRas-mediated phosphorylation of ERK (Cisbio HTRF pERK), H460 cells; assay type: cell-based; settings: Homo sapiens; for IC50: NCI-H460, 3 h, 3 hr compound incubation
# H358 cells = experiment: Inhibition of KRas-mediated phosphorylation of ERK (Cisbio HTRF pERK), H358 cells; assay type: cell-based; settings: Homo sapiens; for IC50: NCI-H358, 3 h, 3 hr compound incubation
# KRas G12D = KRas G12D (Homo sapiens, UniProt P01116, G12D); experiment: biochemical; settings: Binding to KRas (IC50 nM) G12D, TR-FRET displacement, KRas G12D
# KRas G12V = KRas G12V (Homo sapiens, UniProt P01116, G12V); experiment: biochemical; settings: Binding to KRas (IC50 nM) G12V, TR-FRET displacement, KRas G12V
# PSN1 cells = experiment: Inhibition of KRas-mediated phosphorylation of ERK (Cisbio HTRF pERK), PSN1 cells; assay type: cell-based; settings: Homo sapiens, PSN1, 3 h
# How it was run: (§1)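 Cells were seeded on day 1 at 6,000 per well in RPMI containing 10% FBS before compound treatment and phospho-ERK detection.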
# H727 cells = experiment: Inhibition of KRas-mediated phosphorylation of ERK (Cisbio HTRF pERK), H727 cells; assay type: cell-based; settings: Homo sapiens, NCI-H727, 3 h, 3 hr compound incubation
# HCT116 cells = experiment: Inhibition of KRas-mediated phosphorylation of ERK (Cisbio HTRF pERK), HCT116 cells; assay type: cell-based; settings: Homo sapiens; for IC50: HCT-116, 3 h, 3 hr compound incubation
# MKN1 cells = experiment: Inhibition of KRas-mediated phosphorylation of ERK (Cisbio HTRF pERK), MKN1 cells; assay type: cell-based; settings: Homo sapiens
# How it was run: as §1
# ASPC1 cells = experiment: Inhibition of KRas-mediated phosphorylation of ERK (Cisbio HTRF pERK), ASPC1 cells; assay type: cell-based; settings: Homo sapiens, ASPC1, 3 h, AsPC-1 cells, 3 hr compound incubation
# A549 cells = experiment: Inhibition of KRas-mediated phosphorylation of ERK (Cisbio HTRF pERK), A549 cells; assay type: cell-based; settings: Homo sapiens; for IC50: A549, 3 h, 3 hr compound incubation
# [1] = 3 hour compound incubation, Cisbio pERK HTRF
# [2] = MKN-1, 3 hour compound incubation, Cisbio pERK HTRF
# [3] = MKN-1, 3 hr compound incubation
# Sequence of KRas G12D (P01116 1-169 isoform P01116-2 G12D): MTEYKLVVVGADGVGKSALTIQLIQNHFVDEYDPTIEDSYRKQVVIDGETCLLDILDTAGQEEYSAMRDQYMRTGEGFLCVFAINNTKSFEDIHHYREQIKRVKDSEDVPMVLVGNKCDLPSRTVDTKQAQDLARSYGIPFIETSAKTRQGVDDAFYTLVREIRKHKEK
# Sequence of KRas G12R (P01116 1-169 isoform P01116-2 G12R): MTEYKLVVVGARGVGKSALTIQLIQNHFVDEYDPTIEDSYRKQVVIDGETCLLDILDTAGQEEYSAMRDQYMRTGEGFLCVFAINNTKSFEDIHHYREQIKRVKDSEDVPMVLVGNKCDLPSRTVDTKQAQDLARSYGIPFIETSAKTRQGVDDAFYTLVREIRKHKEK
# Sequence of KRas G12V (P01116 1-169 isoform P01116-2 G12V): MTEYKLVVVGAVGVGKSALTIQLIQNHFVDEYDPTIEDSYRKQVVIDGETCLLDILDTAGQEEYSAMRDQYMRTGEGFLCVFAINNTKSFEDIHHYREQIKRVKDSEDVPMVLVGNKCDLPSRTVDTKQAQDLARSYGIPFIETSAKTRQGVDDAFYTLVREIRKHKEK
Compound,IC50 (KRas G12R) [nM],IC50 (H460 cells; Cisbio pERK HTRF) [nM],IC50 (H358 cells; Cisbio pERK HTRF) [nM],IC50 (KRas G12D) [nM],IC50 (KRas G12V) [nM],IC50 (PSN1 cells; [1]) [nM],IC50 (H727 cells; Cisbio pERK HTRF) [nM],IC50 (HCT116 cells; Cisbio pERK HTRF) [nM],IC50 (MKN1 cells; [2]) [nM],IC50 (ASPC1 cells; Cisbio pERK HTRF) [nM],IC50 (A549 cells; Cisbio pERK HTRF) [nM],IC50 (H460 cells) [nM],IC50 (H358 cells) [nM],IC50 (PSN1 cells; 3 hr compound incubation) [nM],IC50 (H727 cells) [nM],IC50 (HCT116 cells) [nM],IC50 (MKN1 cells; [3]) [nM],IC50 (ASPC1 cells) [nM],IC50 (A549 cells) [nM],other results
"CCc1c(F)ccc2cc(O)cc(N3CCc4c(nc(OCC5(CN(C)C)CC5)nc4N4CCCC5(CCO5)C4)C3)c12 (stereo not drawn) [Example 588, 4-(2-((1-((dimethylamino)methyl)cyclopropyl)methoxy)-4-(1-oxa-6-azaspiro[3.5]nonan-6-yl)-5,8-dihydropyrido[3,4-d]pyrimidin-7(6H)-yl)-5-ethyl-6-fluoronaphthalen-2-ol]",< 2,276,211,< 2,< 2,6390,779,544,250,460,455,–,–,–,–,–,–,–,–,–
"CCc1c(F)ccc2cc(O)cc(N3CCc4c(nc(OC[C@@]56CCCN5C[C@H](F)C6)nc4N4CCCN(c5nccs5)CC4)C3)c12 [Example 648, 5-ethyl-6-fluoro-4-(2-(((2R,7aS)-2-fluorotetrahydro-1H-pyrrolizin-7a(5H)-yl)methoxy)-4-(4-(thiazol-2-yl)-1,4-diazepan-1-yl)-5,8-dihydropyrido[3,4-d]pyrimidin-7(6H)-yl)naphthalen-2-ol]",4,–,–,17,7,–,–,–,–,–,–,184,710,> 10000,2330,570,101,1940,1130,–
"CCc1c(F)ccc2cc(O)cc(N3CCc4c(nc(OC[C@@]56CCCN5C[C@H](F)C6)nc4N4CCCn5nc(C(=O)N(C)C)c(O)c5C4)C3)c12 [Example 628, 5-(7-(8-ethyl-7-fluoro-3-hydroxynaphthalen-1-yl)-2-(((2R,7aS)-2-fluorotetrahydro-1H-pyrrolizin-7a(5H)-yl)methoxy)-5,6,7,8-tetrahydropyrido[3,4-d]pyrimidin-4-yl)-3-hydroxy-N,N-dimethyl-5,6,7,8-tetrahydro-4H-pyrazolo[1,5-a][1,4]diazepine-2-carboxamide]",< 2,–,–,< 2,< 2,–,–,–,–,–,–,32,3,> 10000,13,78,1.6,2,7,–
"CCc1c(F)ccc2cc(O)cc(N3CCc4c(nc(OC[C@]56CCCN5[C@H](CNS(=O)(=O)N(C)C)CC6)nc4N4CCCn5nc(C(=O)N(C)C)cc5C4)C3)c12 [Example 593, 5-(2-(((3S,7aR)-3-(((N,N-dimethylsulfamoyl)amino)methyl)tetrahydro-1H-pyrrolizin-7a(5H)-yl)methoxy)-7-(8-ethyl-7-fluoro-3-hydroxynaphthalen-1-yl)-5,6,7,8-tetrahydropyrido[3,4-d]pyrimidin-4-yl)-N,N-dimethyl-5,6,7,8-tetrahydro-4H-pyrazolo[1,5-a][1,4]diazepine-2-carboxamide]",< 2,158,16,< 2,< 2,9360,50,515,49.1,19,114,–,–,–,–,–,–,–,–,–
"CCc1c(F)ccc2cc(O)cc(N3CCc4c(nc(OC[C@@]56CCCN5C[C@H](F)C6)nc4N4CCCn5nc(C(=O)N6C[C@@H]7CO[C@@H](C7)C6)cc5C4)C3)c12 [Example 620, ((1R,5S)-6-oxa-3-azabicyclo[3.2.1]octan-3-yl)(5-(7-(8-ethyl-7-fluoro-3-hydroxynaphthalen-1-yl)-2-(((2R,7aS)-2-fluorotetrahydro-1H-pyrrolizin-7a(5H)-yl)methoxy)-5,6,7,8-tetrahydropyrido[3,4-d]pyrimidin-4-yl)-5,6,7,8-tetrahydro-4H-pyrazolo[1,5-a][1,4]diazepin-2-yl)methanone]",< 2,–,–,< 2,< 2,–,–,–,–,–,–,30,2,2670,7,111,3.7,6,24,–
"CCc1c(F)ccc2cc(O)cc(N3CCc4c(nc(OC[C@@]56CCCN5C[C@H](F)C6)nc4N4CCCCn5nc(C(=O)N(C)C)c(Cl)c5C4)C3)c12 [Example 589, 3-chloro-5-(7-(8-ethyl-7-fluoro-3-hydroxynaphthalen-1-yl)-2-(((2R,7aS)-2-fluorotetrahydro-1H-pyrrolizin-7a(5H)-yl)methoxy)-5,6,7,8-tetrahydropyrido[3,4-d]pyrimidin-4-yl)-N,N-dimethyl-4,5,6,7,8,9-hexahydropyrazolo[1,5-a][1,4] diazocine-2-carboxamide]",< 2,16,2,< 2,< 2,1080,3,30,2.5,6,6,–,–,–,–,–,–,–,–,–
"CCc1c(F)ccc2cc(O)cc(N3CCc4c(nc(OC[C@@]56CCCN5C[C@H](F)C6)nc4N4CCCn5nc(P(C)(C)=O)cc5C4)C3)c12 [Example 350, (5-(7-(8-ethyl-7-fluoro-3-hydroxynaphthalen-1-yl)-2-(((2R,7aS)-2-fluorotetrahydro-1H-pyrrolizin-7a(5H)-yl)methoxy)-5,6,7,8-tetrahydropyrido[3,4-d]pyrimidin-4-yl)-5,6,7,8-tetrahydro-4H-pyrazolo[1,5-a][1,4]diazepin-2-yl)dimethylphosphine oxide]",< 2,–,–,< 2,3,> 10000,178,–,10.9,105,–,–,–,–,–,–,–,–,–,"inhibition at 0.1 µM (H460 cells; NCI-H460, single point at 100 nM, 3 hrs compound incubation): 44%; inhibition at 0.1 µM (H358 cells; NCI-H358, single point at 100 nM, 3 hrs compound incubation): 76%; inhibition at 0.1 µM (HCT116 cells; HCT-116, single point at 100 nM, 3 hrs compound incubation): 10%; inhibition at 0.1 µM (A549 cells; single point at 100 nM, 3 hrs compound incubation): 23%"
"CCc1c(F)ccc2cc(O)cc(N3CCc4c(nc(OCC5(CN(C)C)CC5)nc4N4CCCC(c5cn(C)nn5)C4)C3)c12 (stereo not drawn) [Example 598, 4-(2-((1-((dimethylamino)methyl)cyclopropyl)methoxy)-4-(3-(1-methyl-1H-1,2,3-triazol-4-yl)piperidin-1-yl)-5,8-dihydropyrido[3,4-d]pyrimidin-7(6H)-yl)-5-ethyl-6-fluoronaphthalen-2-ol]",8,1260,757,16,12,> 10000,1740,4280,1450,2380,1540,–,–,–,–,–,–,–,–,–
"CCc1c(F)ccc2cc(O)cc(N3CCc4c(nc(OC[C@@]56CCCN5C[C@H](F)C6)nc4N4CCCn5nc(N)nc5C4)C3)c12 [Example 631, 4-(4-(2-amino-6,7-dihydro-5H-[1,2,4]triazolo[1,5-a][1,4]diazepin-8(9H)-yl)-2-(((2R,7aS)-2-fluorotetrahydro-1H-pyrrolizin-7a(5H)-yl)methoxy)-5,8-dihydropyrido[3,4-d]pyrimidin-7(6H)-yl)-5-ethyl-6-fluoronaphthalen-2-ol]",< 2,–,–,< 2,< 2,–,–,–,–,–,–,341,24,7140,356,508,48.3,69,68,–
